According to patent US20230085307A1, “PYRIDAZINONE COMPOUND AND HERBICIDE” (NISSAN CHEMICAL CORPORATION, priority 2019, published 2023):

Legend:
persian speedwell [1] = test: Test Example 5: herbicidal effect by foliage application, plastic box (Table 20, symbol R); format: in vivo, Persian speedwell (Veronica persica); conditions: foliage application, 320 g/ha, three weeks after application
Summary of the method: (§1)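 Sow seeds spot-wise in sterilized diluvial soil; cover with ~1.5 cm soil. Grow 14 days in greenhouse, 25° C. to 30° C. Spray foliage with emulsion diluted to predetermined amount. Rate effect after 3 weeks.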

windgrass = test: Test Example 4: herbicidal effect by soil treatment (Table 19, symbol L); format: in vivo, windgrass (Apera spica-venti); conditions: amount of applied herbicide 320 g/ha
Summary of the method: (§2)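 Applied as a water-diluted emulsion, the compound was sprayed onto soil covering newly sown seeds. Evaluation came three weeks after application, in a greenhouse held at 25° C. to 30° C.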

green foxtail [2] = test: Test Example 4: herbicidal effect by soil treatment (Table 19, symbol G); format: in vivo, green foxtail (Setaria viridis); conditions: amount of applied herbicide 320 g/ha
Summary of the method: as §2

blackgrass [3] = test: Test Example 4: herbicidal effect by soil treatment (Table 19, symbol J); format: in vivo, blackgrass (Alopecurus myosuroides); conditions: amount of applied herbicide 320 g/ha
Summary of the method: as §2

Italian ryegrass [4] = test: Test Example 5: herbicidal effect by foliage application, plastic box (Table 20, symbol K); format: in vivo, Italian ryegrass (Lolium multiflorum); conditions: foliage application, 320 g/ha, three weeks after application
Summary of the method: as §1

redroot pigweed [5] = test: Test Example 5: herbicidal effect by foliage application, plastic box (Table 20, symbol N); format: in vivo, redroot pigweed (Amaranthus retroflexus); conditions: foliage application, 320 g/ha, three weeks after application
Summary of the method: as §1

barnyard grass [6] = test: Test Example 3: herbicidal effect by foliage application, Wagner pot (Table 18, symbol H); format: in vivo, barnyard grass (Echinochloa crus-galli); conditions: 320 g/ha
Summary of the method: (§3)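 Plants were sown in alluvial soil held under 0.1–0.5 cm standing water and grown 14 days in a greenhouse at 25–30 °C. An emulsifiable formulation, water-diluted to the set dose, was then sprayed onto the foliage, and effects were scored three weeks later using previously defined criteria.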

redroot pigweed [7] = test: Test Example 4: herbicidal effect by soil treatment (Table 19, symbol N); format: in vivo, redroot pigweed (Amaranthus retroflexus); conditions: amount of applied herbicide 320 g/ha
Summary of the method: as §2

lambsquarters [8] = test: Test Example 4: herbicidal effect by soil treatment (Table 19, symbol O); format: in vivo, lambsquarters (Chenopodium album); conditions: amount of applied herbicide 320 g/ha
Summary of the method: as §2

persian speedwell [9] = test: Test Example 4: herbicidal effect by soil treatment (Table 19, symbol R); format: in vivo, Persian speedwell (Veronica persica); conditions: amount of applied herbicide 320 g/ha
Summary of the method: as §2

oval-leafed pondweed = test: Test Example 1: herbicidal activity, application before weed generation under submerged conditions (Table 16, symbol C); format: in vivo, oval-leafed pondweed (Monochoria vaginalis); conditions: 320 g/ha applied herbicide
Summary of the method: (§4)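 Emulsion formulation, water-diluted to set dose, was put onto the flooded surface (4 cm depth, alluvial soil) the same day weeds were sown and 2.5-leaf rice transplanted. After 3 weeks at 25-30 °C under glass, each species was rated 0 (≤5% kill) to 5 (≥90% kill).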

southern crabgrass [10] = test: Test Example 5: herbicidal effect by foliage application, plastic box (Table 20, symbol F); format: in vivo, southern crabgrass (Digitaria ciliaris); conditions: foliage application, 320 g/ha, three weeks after application
Summary of the method: as §1

velvetleaf [11] = test: Test Example 5: herbicidal effect by foliage application, plastic box (Table 20, symbol M); format: in vivo, velvetleaf (Abutilon theophrasti); conditions: foliage application, 320 g/ha, three weeks after application
Summary of the method: as §1

blackgrass [12] = test: Test Example 5: herbicidal effect by foliage application, plastic box (Table 20, symbol J); format: in vivo, blackgrass (Alopecurus myosuroides); conditions: foliage application, 320 g/ha, three weeks after application
Summary of the method: as §1

lambsquarters [13] = test: Test Example 5: herbicidal effect by foliage application, plastic box (Table 20, symbol O); format: in vivo, lambsquarters (Chenopodium album); conditions: foliage application, 320 g/ha, three weeks after application
Summary of the method: as §1

rice flat sedge = test: Test Example 3: herbicidal effect by foliage application, Wagner pot (Table 18, symbol E); format: in vivo, rice flat sedge (Cyperus iria); conditions: 320 g/ha
Summary of the method: as §3

Japanese bulrush = test: Test Example 1: herbicidal activity, application before weed generation under submerged conditions (Table 16, symbol B); format: in vivo, Japanese bulrush (Schoenoplectus juncoides); conditions: 320 g/ha applied herbicide
Summary of the method: as §4

chickweed [14] = test: Test Example 5: herbicidal effect by foliage application, plastic box (Table 20, symbol P); format: in vivo, common chickweed (Stellaria media); conditions: foliage application, 320 g/ha, three weeks after application
Summary of the method: as §1

wild oat [15] = test: Test Example 4: herbicidal effect by soil treatment (Table 19, symbol I); format: in vivo, wild oat (Avena fatua); conditions: amount of applied herbicide 320 g/ha
Summary of the method: as §2

barnyard grass [16] = test: Test Example 5: herbicidal effect by foliage application, plastic box (Table 20, symbol H); format: in vivo, barnyard grass (Echinochloa crus-galli); conditions: foliage application, 320 g/ha, three weeks after application
Summary of the method: as §1

barnyard grass [17] = test: Test Example 4: herbicidal effect by soil treatment (Table 19, symbol H); format: in vivo, barnyard grass (Echinochloa crus-galli); conditions: amount of applied herbicide 320 g/ha
Summary of the method: as §2

velvetleaf [18] = test: Test Example 4: herbicidal effect by soil treatment (Table 19, symbol M); format: in vivo, velvetleaf (Abutilon theophrasti); conditions: amount of applied herbicide 320 g/ha
Summary of the method: as §2

southern crabgrass [19] = test: Test Example 4: herbicidal effect by soil treatment (Table 19, symbol F); format: in vivo, southern crabgrass (Digitaria ciliaris); conditions: amount of applied herbicide 320 g/ha
Summary of the method: as §2

Chinese sprangletop = test: Test Example 3: herbicidal effect by foliage application, Wagner pot (Table 18, symbol D); format: in vivo, chinese sprangletop (Leptochloa chinensis); conditions: 320 g/ha
Summary of the method: as §3

Italian ryegrass [20] = test: Test Example 4: herbicidal effect by soil treatment (Table 19, symbol K); format: in vivo, Italian ryegrass (Lolium multiflorum); conditions: amount of applied herbicide 320 g/ha
Summary of the method: as §2

false cleavers [21] = test: Test Example 5: herbicidal effect by foliage application, plastic box (Table 20, symbol Q); format: in vivo, false cleavers (Galium spurium); conditions: foliage application, 320 g/ha, three weeks after application
Summary of the method: as §1

chickweed [22] = test: Test Example 4: herbicidal effect by soil treatment (Table 19, symbol P); format: in vivo, common chickweed (Stellaria media); conditions: amount of applied herbicide 320 g/ha
Summary of the method: as §2

wild oat [23] = test: Test Example 5: herbicidal effect by foliage application, plastic box (Table 20, symbol I); format: in vivo, wild oat (Avena fatua); conditions: foliage application, 320 g/ha, three weeks after application
Summary of the method: as §1

false cleavers [24] = test: Test Example 4: herbicidal effect by soil treatment (Table 19, symbol Q); format: in vivo, false cleavers (Galium spurium); conditions: amount of applied herbicide 320 g/ha
Summary of the method: as §2

green foxtail [25] = test: Test Example 5: herbicidal effect by foliage application, plastic box (Table 20, symbol G); format: in vivo, green foxtail (Setaria viridis); conditions: foliage application, 320 g/ha, three weeks after application
Summary of the method: as §1

late watergrass = test: Test Example 1: herbicidal activity, application before weed generation under submerged conditions (Table 16, symbol A); format: in vivo, late watergrass (Echinochloa oryzicola); conditions: 320 g/ha applied herbicide
Summary of the method: as §4

Compound: CCCC(=O)Oc1c(C)nn(C)c(=O)c1-c1c(-c2ccc(C(C)=O)cc2)sc2ccccc12 [1-042]
- herbicidal effect grade, R: persian speedwell (persian speedwell [1]): 5 (Herbicidal rate of 90% or more (almost completely withered))
- herbicidal effect rating, L: windgrass (windgrass): 0 (Herbicidal rate of 5% or less (almost no effect))
- herbicidal effect rating, G: green foxtail (green foxtail [2]): 3 (Herbicidal rate of 40% or more and less than 70%)
- herbicidal effect rating, J: blackgrass (blackgrass [3]): 0 (Herbicidal rate of 5% or less (almost no effect))
- herbicidal effect grade, K: Italian ryegrass (Italian ryegrass [4]): 4 (Herbicidal rate of 70% or more and less than 90%)
- herbicidal effect grade, N: redroot pigweed (redroot pigweed [5]): 4 (Herbicidal rate of 70% or more and less than 90%)
- herbicidal effect on H (barnyard grass), rating 0-5 (barnyard grass [6]): 3 (Herbicidal rate of 40% or more and less than 70%)
- herbicidal effect rating, N: redroot pigweed (redroot pigweed [7]): 5 (Herbicidal rate of 90% or more (almost completely withered))
- herbicidal effect rating, O: lambsquarters (lambsquarters [8]): 3 (Herbicidal rate of 40% or more and less than 70%)
- herbicidal effect rating, R: persian speedwell (persian speedwell [9]): 5 (Herbicidal rate of 90% or more (almost completely withered))
- Herbicidal effect on C: oval-leafed pondweed (grade 0-5) (oval-leafed pondweed): 3 (Herbicidal rate of 40% or more and less than 70%)
- herbicidal effect grade, F: southern crabgrass (southern crabgrass [10]): 3 (Herbicidal rate of 40% or more and less than 70%)
- herbicidal effect grade, M: velvetleaf (velvetleaf [11]): 5 (Herbicidal rate of 90% or more (almost completely withered))
- herbicidal effect grade, J: blackgrass (blackgrass [12]): 0 (Herbicidal rate of 5% or less (almost no effect))
- herbicidal effect grade, O: lambsquarters (lambsquarters [13]): 3 (Herbicidal rate of 40% or more and less than 70%)
- herbicidal effect on E (rice flat sedge), rating 0-5 (rice flat sedge): 5 (Herbicidal rate of 90% or more (almost completely withered))
- Herbicidal effect on B: Japanese bulrush (grade 0-5) (Japanese bulrush): 4 (Herbicidal rate of 70% or more and less than 90%)
- herbicidal effect grade, P: chickweed (chickweed [14]): 5 (Herbicidal rate of 90% or more (almost completely withered))
- herbicidal effect rating, I: wild oat (wild oat [15]): 0 (Herbicidal rate of 5% or less (almost no effect))
- herbicidal effect grade, H: barnyard grass (barnyard grass [16]): 3 (Herbicidal rate of 40% or more and less than 70%)
- herbicidal effect rating, H: barnyard grass (barnyard grass [17]): 0 (Herbicidal rate of 5% or less (almost no effect))
- herbicidal effect rating, M: velvetleaf (velvetleaf [18]): 3 (Herbicidal rate of 40% or more and less than 70%)
- herbicidal effect rating, F: southern crabgrass (southern crabgrass [19]): 2 (Herbicidal rate of 20% or more and less than 40%)
- herbicidal effect on D (Chinese sprangletop), rating 0-5 (Chinese sprangletop): 0 (Herbicidal rate of 5% or less (almost no effect))
- herbicidal effect rating, K: Italian ryegrass (Italian ryegrass [20]): 3 (Herbicidal rate of 40% or more and less than 70%)
- herbicidal effect grade, Q: false cleavers (false cleavers [21]): 2 (Herbicidal rate of 20% or more and less than 40%)
- herbicidal effect rating, P: chickweed (chickweed [22]): 4 (Herbicidal rate of 70% or more and less than 90%)
- herbicidal effect grade, I: wild oat (wild oat [23]): 0 (Herbicidal rate of 5% or less (almost no effect))
- herbicidal effect rating, Q: false cleavers (false cleavers [24]): 0 (Herbicidal rate of 5% or less (almost no effect))
- herbicidal effect grade, G: green foxtail (green foxtail [25]): 3 (Herbicidal rate of 40% or more and less than 70%)
- Herbicidal effect on A: late watergrass (grade 0-5) (late watergrass): 3 (Herbicidal rate of 40% or more and less than 70%)
